Drawing on patent US5773459A, “Urea- and thiourea-type compounds” (Sugen, Inc., priority 1995, dated 1998), this text covers IC50 for four compounds.

In assay [1] the test system is chimeric receptor containing the EGFR extracellular domain and the HER2 intracellular kinase domain. The assay is described as follows: EGFR-HER2 chimeric receptor assay, HER2 kinase activity in whole NIH3T3 cells. The format is cell-based. Conditions: NIH3T3 cells with EGFR-HER2 chimera, EGF stimulated; read-out: ELISA DATA: HER2 - (3T3). An excerpt: (§1) The following examples illustrate the ability of the exemplary compounds to inhibit receptor tyrosine kinases, such as HER2 and/or EGFR. The following target cells were used for cellular kinase assays: NIH3T3 clone C7 (Honegger et al., supra) engineered to over-express human EGF receptor; NIH3T3 cells engineered to over-express a chimeric receptor containing the EGFR extracellular domain and the HER2 intracellular kinase domain; the human mammary carcinoma line BT474 (ATCC HTB2) expressing HER2; and the human glioblastoma line U1242 that expresses PDGFR-beta. Growth assays were carried out using human mammary epithelial SKBR3 (ATCC HTB30) cells (SKBR3 cells over-express HER2), SKOV3 (ATCC HTB77) human ovarian cancer cell line (SKOV3 cells also over-express HER2), A431 cells (A431 cells over-express EGFR) MCF7 human breast carcinoma cells, MCF7 cells overexpressing the HER2 kinase (MCF7-HER2), NIH3T3 cells, and NIH3T3 cells overexpressing the HER2 kinase (3T3-HER2.
EGFR-HER2 Chimeric Recetor
HER2 kinase activity (EGFR-3T3) in whole cells was measured as described below:
The materials and regeants are identical to these used in example 1, the EGFR whole cell kinase assay.
A. Coat ELISA plates (Corning, 96 well, Cat. #25805-96) with 05-101 antibody at 0.5 μg per well in PBS, 100 μl final volume/well, and store overnight at 4.sunburst.C. Coated plates are good for up to 10 days when stored at 4° C.
B. On day of use, remove coating buffer and replace with 100 μl blocking buffer (5% Carnation Instant Non-Fat Dry Milk in PBS). Incubate the plate, shaking, at room temperature (about 23.sunburst.C to 25.sunburst.C) for 30 minutes. Just prior to use, remove blocking buffer and wash plate 4 times with TBST buffer.
A. An NIH3T3 cell line overexpressing a chimeric receptor containing the EGFR extracellular domain and […] can be used for this assay.
B. Choose dishes having 80-90% confluence for the experiment. Trypsinize cells and stop reaction by adding 10% fetal bovine serum. Suspend cells in DMEM medium (10% CS DMEM medium) and centrifuge once at 1500 rpm, at room temperature for 5 minutes.
C. Resuspend cells in seeding medium (DMEM, 0.5% bovine serum) , and count the cells using trypan blue. Viability above 90% is acceptable. Seed cells in DMEM medium (0.5% bovine serum) at a density of 10,000 cells per well, 100 μl per well, in a 96 well microtiter plate. Incubate seeded cells in 5% CO2 at 37.sunburst.C for about 40 hours.
A. Check seeded cells for contamination using an inverted microscope. Dilute drug stock (10 mg/ml in DMSO) 1:10 in DMEM medium, then transfer 5 l to a […] well for a final drug dilution of 1:200 and a final DMSO concentration of 1%. Control wells receive DMSO alone. Incubate in 5% CO2 at 37° C. for two hours. […]

In assay [2] the test system is NIH3T3 cells overexpressing the HER2 kinase (3T3-HER2). The assay can be described thus: 3T3 Growth Assay (HER2-overexpressing 3T3 cells, SRB). The format is cell-based. Conditions: Mus musculus.
Excerpt: as §1
The 3T3 growth assay was carried out as follows: […]
(1) HER2C7 (engineered to express HER2) and NIH3T3C7 (as the control) cells are used for this assay. […] Cells are incubated at 37° C., 5% CO2 overnight to allow for cell attachment to the plate;
(2) The […] compound is added to the cells at day 2. […] A total of 100 μl/well medium of the diluted compounds is added into the cells. The total volume of each well is 200 μl. Quadruplicates (wells) and 11 concentration points are applied to each compound tested.
(3) After the cells are treated with the compound for 4 days, the cells are washed with PBS and fixed with 200 μl/well ice-cold 10% TCA for one hour at 0°-5° C. condition.
(4) Remove TCA and rinse wells 5 times with deionized water. Dry plates upside down with paper towels. Stain cells with 0.4% SRB at 100 μl well for 10 minutes.
(5) Pour off SRB and rinse plate 5 times with 1% acetic acid. Dry plate completely.
(6) Solubilize the dye with 10 mM Tris-base at 100 μl/well for 10 minutes on a shaker.
(7) Read the plate at dual wavelengths at 570 nm and 630 nm on Dynatech Elisa plate reader.

The mark [3] stands for this setting: read-out: GROWTH DATA: 3T3/HER2 2% FBS.
Where [4] appears, read: read-out: GROWTH DATA: 3T3/HER2 10% FBS.

Where two headings read alike, the source gives them in different places.

As for `CC(C)S(=O)(=O)c1csc(NC(=O)Nc2ccc(C(C)(C)C)cc2)c1Cl` [Example Z1, N-[3-Chloro-4-(isopropylsulfonyl)thien-2-yl]-N'-(4-t-butylphenyl)urea], the IC50 in assay [1] amounted to 10.3 µM; in assay [2] (setting [3]), 1 µM; in assay [2] (setting [4]), 15 µM.
On the same counts, the results for `CC(C)S(=O)(=O)c1csc(NC(=O)Nc2cc(C(F)(F)F)cc(C(F)(F)F)c2)c1Cl` [Example Z2, N-[3-Chloro-4-(isopropylsulfonyl)thien-2-yl]-N'-(3,5-di-trifluoromethylphenyl)urea] are 31.7 µM, 0.6 µM and 18 µM.
For `O=C(Nc1ccc(SC(F)(F)F)cc1)Nc1ccc(Oc2ccc(Cl)cc2Cl)nc1` [Example Z3], the IC50 in assay [1] is more than 100 µM; in assay [2] (setting [3]), 0.35 µM; in assay [2] (setting [4]) it was 18 µM.
For the compound `N#Cc1ccc(NC(=S)Nc2ccc(S(=O)(=O)N3CCCCC3)cc2)cc1` [Example Z4, N-(4-Cyanophenyl)-N'-[4-[(piperid-1-yl)sulfonyl]phenyl]thiourea], the IC50 in assay [1] was more than 100 µM.
